This test has as its system sensitized bronchial muscle. Kind of test: Antiallergic action: inhibition of egg albumin-induced contraction of sensitized guinea pig bronchial muscle. The note with it: Cavia porcellus; for inhibition at 10 µM: 10^-5 M; for inhibition at 1 µM: 10^-6 M; for inhibition at 0.1 µM: 10^-7 M; for inhibition at 0.01 µM: 10^-8 M; for inhibition at 100 µM: 10^-4 M. In kind it is tissue-based, guinea pigs of Hartley strain. How it is done: Male guinea pigs of Hartley strain (body weight: about 250 g) were intraperitoneally or intramuscularly dosed with egg albumin (dose 100 mg/kg) and the same procedure was repeated after 3 days. After 3 to 4 weeks, the guinea pi-as were bled to death and the sensitized bronchial muscle was excised and cut into 1.5 mm thick rings. Three rings were joined to prepare a specimen. The specimen was suspended in a tissue bath and a load of 1 g was applied. […] After stabilization of the specimen (after about 1 hour), histamine hydrochloride was added to the bath at a final concentration of 10^-5 M. The contraction curve was recorded. After the contraction had been stabilized, the specimen was washed with 3 portions of Ringer's solution at 10-minute intervals to stabilize the contraction (about 1 hour was required). Then, the test compound was added to the tissue bath and, after an interval of 10 minutes, 5 mg/ml of egg albumin was added. The contraction amplitude of the specimen was measured and the percent inhibition was calculated according to the following formula. [formula] A: Contraction amplitude of control group when egg albumin is added A': Contraction amplitude of dosage group when egg albumin is added
H: Contraction amplitude of control group when histamine hydrochloride is added
H': Contraction amplitude of dosage group when histamine hydrochloride is added

For `CC(C)=CCCC(C)(O)C(O)CN1CCCC1` (stereo not drawn) [(3)], the inhibition at 10 µM amounted to 36.3%, the inhibition at 1 µM was found to be 60%, the inhibition at 0.1 µM stood at 34.2% and the inhibition at 0.01 µM was found to be 30.8%.
On to `CC(C)=CCCC(C)(O)C(CO)N(C)CCO` (stereo not drawn) [Compound (57)], for which the inhibition at 10 µM was 35% and the inhibition at 1 µM was found to be 17%.
`CC(C)CCCC(C)(O)CCCC(C)(O)CCN(C)Cc1ccccc1` (stereo not drawn) [Compound (29), 1-(methylbenzylamino)-3,7,11-trimethyl-3,7-dodecanediol]: the inhibition at 0.1 µM amounted to 42.3%.
Turning to `CC(C)=CCCC(C)(O)C(O)CN(C)C` (stereo not drawn) [Compound (45)], the inhibition at 100 µM came out at 52%, the inhibition at 10 µM was found to be 41% and the inhibition at 1 µM amounted to 26%.
As for `CCCCN(CCCC)CC(O)C(C)(O)CCCC(C)CCCC(C)C` (stereo not drawn) [Compound (13), 1-dibutylamino-3,7,11-trimethyl-2,3-dodecanediol], the inhibition at 100 µM came to 40.2%.
As to `CC(C)CCCC(C)CCCC(C)(O)C(O)Cn1c(=O)[nH]c2ccccc21` (stereo not drawn) [Compound (25)], the inhibition at 1 µM amounted to 69%, the inhibition at 0.1 µM came to 47% and the inhibition at 0.01 µM was 19%.
`CC(C)CCCC(C)CCCC(C)(O)C(O)CN1CCCC1` (stereo not drawn) [Compound (38)]: the inhibition at 0.1 µM is 36.7%.
As for `CN(CCC(C)(O)CCCC(C)(O)CCCC(C)(C)O)Cc1ccccc1` (stereo not drawn) [Compound (37), 1-(methylbenzylamino)-3,7,11-trimethyl-3,7,11-dodecanetriol], the inhibition at 0.1 µM worked out at 16%.
`CC(C)CCCC(C)(O)C(N)CO` (stereo not drawn) [Compound (58)]: the inhibition at 100 µM worked out at 21%, the inhibition at 10 µM was 0% and the inhibition at 1 µM came to 0%.
With `CC(C)CCCC(C)(O)C(O)CN` (stereo not drawn) [Compound (7)], the inhibition at 10 µM amounted to 54.3%, the inhibition at 1 µM was found to be 48.1% and the inhibition at 0.1 µM came to 58.7%.
With `CNCCC(C)(O)CCCC(C)(O)CCCC(C)C` (stereo not drawn) [Compound (27), 1-(methylamino)-3,7,11-trimethyl-3,7-dodecanediol], the inhibition at 0.1 µM amounted to 15.6%.
As to `CC(C)CCCC(C)CCCC(C)CCCC(C)(O)C(O)CN` (stereo not drawn) [Compound (30)], the inhibition at 10 µM amounted to 16.7% and the inhibition at 1 µM worked out at 9%.
With `CC(C)CCCC(C)CCCC(C)(O)C(CO)N1CCSCC1` (stereo not drawn) [Compound (68)], the inhibition at 10 µM stood at 38%, the inhibition at 1 µM worked out at 36% and the inhibition at 0.1 µM is 22%.
With `CC(C)=CCCC(C)(O)C(O)CN1CCCCC1` (stereo not drawn) [Compound (4)], the inhibition at 10 µM was determined as 42% and the inhibition at 1 µM amounted to 2.6%.
As for `CCNCC(O)C(C)(O)CCC=C(C)C` (stereo not drawn) [Compound (46)], the inhibition at 100 µM turned out to be 38%, the inhibition at 10 µM was 54% and the inhibition at 1 µM was 23%.
With `CC(C)=CCCC(C)(O)C(CO)N1CCCCC1` (stereo not drawn) [Compound (55)], the inhibition at 10 µM was 45%, the inhibition at 1 µM came out at 17%, the inhibition at 0.1 µM was found to be 9% and the inhibition at 0.01 µM worked out at 0%.
In the case of `CC(C)CCCC(C)CCCC(C)(O)C(O)CN1CCN(C(c2ccccc2)c2ccccc2)CC1` (stereo not drawn) [Compound (24)], the inhibition at 1 µM stood at 75%, the inhibition at 0.1 µM turned out to be 60% and the inhibition at 0.01 µM was found to be 25%.
For `CC(C)CCCC(C)CCCC(C)(O)C(O)Cn1ccnc1` (stereo not drawn) [Compound (21), 1-(1H-imidazol-1-yl)-3,7,11-trimethyl-2,3-dodecanediol], the inhibition at 0.1 µM came out at 66.9%.
For the compound `CNC(C)C(C)(O)CCCC(C)(O)CCCC(C)C` (stereo not drawn) [Compound (70), 2-(methylamino)-3,7,11-trimethyl-3,7-dodecanediol], the inhibition at 1 µM worked out at 42% and the inhibition at 0.1 µM came to 19%.
In the case of `CCCCN(CCCC)C(CO)C(C)(O)CCCC(C)C` (stereo not drawn) [Compound (59), 2-(dibutylamino)-3,7-dimethyl-1,3-octanediol], the inhibition at 10 µM is 49%, the inhibition at 1 µM worked out at 51% and the inhibition at 0.1 µM was determined as 0%.
Turning to `CC(C)CCCC(C)CCCC(C)(O)C(O)CNCCCN1CCOCC1` (stereo not drawn) [Compound (22)], the inhibition at 0.1 µM amounted to 46.9%.
Take `CC(C)CCCC(C)CCCC(C)(O)C(CO)NC1CCN(Cc2ccccc2)CC1` (stereo not drawn) [Compound (63)]: the inhibition at 1 µM is 55%, the inhibition at 0.1 µM is 45% and the inhibition at 0.01 µM was found to be 11%.
Consider `CC(C)CCCC(C)CCCC(C)(O)C(O)CN1CCCCC1` (stereo not drawn) [Compound (39)], for which the inhibition at 0.1 µM came to 29.1%.
As for `CCCNC(CO)C(C)(O)CCC=C(C)C` (stereo not drawn) [Compound (52)], the inhibition at 10 µM was found to be 62%, the inhibition at 1 µM came to 31%, the inhibition at 0.1 µM came to 7% and the inhibition at 0.01 µM was determined as 0%.
For `CCCCN(CCCC)CC(O)C(C)(O)CCCC(C)CCCC(C)CCCC(C)C` (stereo not drawn) [Compound (34)], the inhibition at 10 µM worked out at 65.2%, the inhibition at 1 µM turned out to be 33% and the inhibition at 0.1 µM was determined as 3%.
On to `CC(C)CCCC(C)CCCC(C)(O)C(O)CNC1CCN(Cc2ccccc2)CC1` (stereo not drawn) [Compound (40), 1-[(1-benzylpiperidin-4-yl)amino]-3,7-11-trimethyl-2,3-dodecanediol], for which the inhibition at 0.1 µM turned out to be 34.8%.
On to `CCN(CC)CC(O)C(C)(O)CCC=C(C)C` (stereo not drawn) [Compound (48)], for which the inhibition at 10 µM amounted to 47% and the inhibition at 1 µM was found to be 39%.
Take `CC(C)CCCC(C)CCCC(C)(O)C(O)CN` (stereo not drawn) [Compound (11), 1-amino-3,7,11-trimethyl-2,3-dodecanediol]: the inhibition at 10 µM amounted to 40.7% and the inhibition at 1 µM was determined as 32.5%.
With `CNCC(O)C(C)(O)CCCC(C)CCCC(C)C` (stereo not drawn) [Compound (12), 1-methylamino-3,7,11-trimethyl-2,3-dodecanediol], the inhibition at 100 µM stood at 48.3% and the inhibition at 10 µM is 35.4%.
On to `CCCCN(CCCC)C(CO)C(C)(O)CCC=C(C)C` (stereo not drawn) [Compound (53)], for which the inhibition at 10 µM was determined as 33%, the inhibition at 1 µM was 59%, the inhibition at 0.1 µM came out at 49% and the inhibition at 0.01 µM is 8%.
In the case of `CC(C)=CCCC(C)(O)C(O)CN1CCOCC1` (stereo not drawn) [Compound (5)], the inhibition at 10 µM worked out at 28.9%, the inhibition at 1 µM was determined as 71.5% and the inhibition at 0.1 µM was 23%.
For `COc1ccc(CN2CCN(CC(O)C(C)(O)CCCC(C)CCCC(C)C)CC2)c(OC)c1OC` (stereo not drawn) [Compound (18), 3,7,11-trimethyl-l-[4-[(2,3,4-trimethoxyphenyl)methyl]piperazin-1-yl]-2,3-dodecanediol], the inhibition at 10 µM turned out to be 62%, the inhibition at 1 µM is 79% and the inhibition at 0.1 µM is 45%.
The corresponding values for `CC(C)=CCCC(C)(O)C(CO)N(C)C` (stereo not drawn) [Compound (51)] are 41%, 18% and 0%.
`CCCCN(CCCC)CC(O)C(C)(O)CCC=C(C)C` (stereo not drawn) [(1)]: the inhibition at 100 µM is 43.6%.
In the case of `CC(C)CCCC(C)CCCC(C)(O)C(O)CNCc1cccnc1` (stereo not drawn) [Compound (41)], the inhibition at 0.1 µM was 46%.
For `CC(C)=CCCC(C)(O)C(O)CN(C)CCO` (stereo not drawn) [Compound (6)], the inhibition at 10 µM came to 48.2% and the inhibition at 1 µM stood at 28.6%.
With `CCCCNCC(O)C(C)(O)CCC=C(C)C` (stereo not drawn) [Compound (49)], the inhibition at 1 µM is 61% and the inhibition at 0.1 µM turned out to be 20.7%.

The values are drawn from patent publication US5284850A, “Terpene amino alcohols and medicinal uses thereof” (Kuraray Co., Ltd., priority 1985, dated 1994).
